#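 Exposure lasted 48 hours, with cells grown in 96-well plates and compounds tested at five concentrations. The concentration for 50% growth inhibition is given as GI50.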 Calls of active or inactive are those of the source. Cut-off read from the data, not from the text of the source: active = GI50 up to about 1.1 µM and inactive = higher.
# Legend:
# Test in all cases: NCI anticancer screen, dose series, 48 h
# M14 = test system: M14
# NCI-H23 = test system: NCI-H23
# MDA-MB-435 = test system: MDA-MB-435
# SF-295 = test system: SF-295
# SK-MEL-5 = test system: SK-MEL-5
# SNB-75 = test system: SNB-75
# A549 = test system: A549
# NCI/ADR-RES = test system: NCI/ADR-RES
# A498 = test system: A498
# HL-60 = test system: HL-60
# SN12C = test system: SN12C
# OVCAR-4 = test system: OVCAR-4
# MDA-MB-231 = test system: MDA-MB-231
# K562 = test system: K562
# HCT-116 = test system: HCT-116
# Hs-578T = test system: Hs-578T
# HT-29 = test system: HT-29
# SK-MEL-28 = test system: SK-MEL-28
# NCI-H522 = test system: NCI-H522
# OVCAR-3 = test system: OVCAR-3
SMILES,GI50 (M14),GI50 (NCI-H23),GI50 (MDA-MB-435),GI50 (SF-295),GI50 (SK-MEL-5),GI50 (SNB-75),GI50 (A549),GI50 (NCI/ADR-RES),GI50 (A498),GI50 (HL-60),GI50 (SN12C),GI50 (OVCAR-4),GI50 (MDA-MB-231),GI50 (K562),GI50 (HCT-116),GI50 (Hs-578T),GI50 (HT-29),GI50 (SK-MEL-28),GI50 (NCI-H522),GI50 (OVCAR-3)
COCC(C#N)NC1CC(OC2CC(O)(C(=O)CO)Cc3c(O)c4c(c(O)c32)C(=O)c2c(OC)cccc2C4=O)OC(C)C1O (stereo not given),0.134 µM (active),0.0592 µM (active),0.108 µM (active),0.0966 µM (active),0.0303 µM (active),0.0564 µM (active),0.0521 µM (active),1.82 µM (inactive),0.0383 µM (active),0.0193 µM (active),0.0422 µM (active),0.282 µM (active),0.112 µM (active),0.0415 µM (active),0.0385 µM (active),0.161 µM (active),0.151 µM (active),0.156 µM (active),0.0321 µM (active),0.153 µM (active)
O=C(O)Cc1ccc([N+](=O)[O-])cc1[N+](=O)[O-],> 100 µM (inactive),> 100 µM (inactive),> 100 µM (inactive),> 100 µM (inactive),> 100 µM (inactive),> 100 µM (inactive),> 100 µM (inactive),> 100 µM (inactive),> 100 µM (inactive),> 100 µM (inactive),> 100 µM (inactive),> 100 µM (inactive),> 100 µM (inactive),> 100 µM (inactive),> 100 µM (inactive),70.6 µM (inactive),> 100 µM (inactive),> 100 µM (inactive),> 100 µM (inactive),> 100 µM (inactive)
